Measured values from ChEMBL document CHEMBL1201862, “PubChem BioAssay data set” (2004).
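Five compound concentrations were applied to cells in 96-well plates for 48 hours; endpoints were derived by simple linear interpolation of the resulting dose-response curve. GI50: concentration for 50% inhibition of growth.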 The source made the active and inactive calls. Cut-off read from the data, not from the text of the source: active = GI50 up to about 1.1 µM and inactive = higher.

Experiments:
Experiment in all cases: NCI anticancer screen, dose series, 48 h
[1] = test system: M14
[2] = test system: DMS-114
[3] = test system: MOLT-4
[4] = test system: NCI-H226
[5] = test system: SK-MEL-2
[6] = test system: SW-620
[7] = test system: SK-MEL-28
[8] = test system: COLO 205
[9] = test system: Malme-3M
[10] = test system: A498
[11] = test system: OVCAR-8
[12] = test system: SNB-75
[13] = test system: A549
[14] = test system: CCRF-CEM
[15] = test system: UO-31
[16] = test system: SF-268
[17] = test system: HT-29
[18] = test system: NCI/ADR-RES
[19] = test system: MDA-N
[20] = test system: MDA-MB-435

Measured: GI50

CC(=O)OC1CC2C(C)(C)C(=O)C=C[C@]2(C)C2CCC3(C)C(c4ccoc4)C(=O)[C@H]4O[C@]43[C@]12C (stereo partly specified)
inactive: [1] 26.7 µM | [2] > 100 µM | [3] 16 µM | [4] 23.7 µM | [5] 20.8 µM | [6] 28.5 µM | [7] 15.5 µM | [8] > 100 µM | [9] 16.1 µM | [10] 20.3 µM | [11] 19.4 µM | [12] 29.8 µM | [13] > 10 µM | [14] 15.5 µM | [15] 18.7 µM | [16] 38.9 µM

COc1ccc(-c2cc(-c3cc(C)ccc3O)nc(O)n2)cc1
inactive: [1] > 100 µM | [2] 81.8 µM | [3] > 100 µM | [17] > 100 µM | [4] > 100 µM | [6] > 100 µM | [7] > 100 µM | [8] > 100 µM | [9] > 100 µM | [10] 74.6 µM | [11] 74.8 µM | [12] 26.2 µM | [13] > 100 µM | [14] > 100 µM | [15] 76.6 µM | [16] 80.9 µM

O=C(Nc1nc2ccccc2n1Cc1ccc(Cl)cc1)NC12CC3CC(CC(C3)C1)C2
inactive: [1] 25 µM | [2] 24.3 µM | [3] > 100 µM | [17] 74.3 µM | [4] 24 µM | [5] 26.9 µM | [6] 65.8 µM | [7] 16 µM | [8] 36.2 µM | [9] 19.1 µM | [12] 7.74 µM | [13] 21.1 µM | [14] 76.7 µM | [15] 48 µM | [16] 4.12 µM

CSC1(C)CC2C(CC1N1CCOCC1)C2(C)C (stereo unspecified)
inactive: [1] > 100 µM | [2] > 100 µM | [3] > 100 µM | [17] > 100 µM | [4] > 100 µM | [5] > 100 µM | [7] > 100 µM | [8] > 100 µM | [9] > 100 µM | [11] > 100 µM | [12] > 100 µM | [13] > 100 µM | [14] > 100 µM | [15] > 100 µM | [16] > 100 µM

CC(=O)Oc1cc(C)c2c(c1OC(C)=O)CC1(O2)[C@@H](C)CCC2[C@@]3(C)CC[C@H](OC(C)=O)C(C)(C)C3CC[C@]21C (stereo partly specified)
inactive: [1] 6.08 µM | [2] 2.29 µM | [3] 4.57 µM | [17] 5.43 µM | [4] 11.4 µM | [6] 2.82 µM | [7] 4.41 µM | [8] 1.63 µM | [9] 2.86 µM | [10] 7.46 µM | [11] 3.01 µM | [12] 3.57 µM | [13] 5.3 µM | [15] 1.99 µM | [16] 3.37 µM

O=C(CSc1nnc(Cc2ccccc2)o1)Nc1ccccc1Cl
inactive: [1] > 100 µM | [2] > 100 µM | [3] > 100 µM | [17] > 100 µM | [4] > 100 µM | [5] > 100 µM | [6] > 100 µM | [7] > 100 µM | [8] > 100 µM | [9] > 100 µM | [10] > 100 µM | [11] > 100 µM | [13] > 100 µM | [14] > 100 µM | [15] > 100 µM | [16] > 100 µM

CCC1OC(=O)CC(O)C(C)C(OC2OC(C)CC(N(C)C)C2O)C(CC=O)CC(C)C(=O)/C=C/C2(C)OC2C1C (stereo unspecified)
inactive: [1] 31 µM | [3] 16.5 µM | [18] 31.2 µM | [17] 17.9 µM | [4] 16.3 µM | [19] 25.8 µM | [5] 45.2 µM | [6] 17 µM | [20] 16.8 µM | [7] 21.4 µM | [8] 16.9 µM | [9] 21.7 µM | [10] 25.9 µM | [11] 22.4 µM | [12] 19.3 µM | [13] 49.4 µM | [14] 4.91 µM | [15] 23.3 µM | [16] 27.2 µM

CC(=O)OC(C)(C)CCC(=O)[C@](C)(O)[C@H]1[C@H](O)C[C@@]2(C)[C@@H]3CCc4c(cc(OC5OC(CO)C(O)C(O)C5O)c(O)c4C)C3(C)C(=O)C[C@]12C (stereo partly specified)
inactive: [1] > 100 µM | [3] > 100 µM | [18] > 100 µM | [17] > 100 µM | [4] > 100 µM | [19] > 100 µM | [5] > 100 µM | [6] > 100 µM | [20] > 100 µM | [7] > 100 µM | [8] > 100 µM | [9] > 100 µM | [10] > 100 µM | [11] > 100 µM | [12] > 100 µM | [13] > 100 µM | [14] > 100 µM | [15] > 100 µM | [16] > 100 µM
